How the values were obtained:
[1] = tested on: posterior pituitary glands; assay: Oxytocin release from whole posterior pituitary glands (enzyme immunoassay); format: cell-based, rats
Description: Posterior pituitary. Experiments were performed on posterior pituitary glands removed from rats of either sex, ranging in age from 1-3 months. Animals were rendered unconscious by inhalation of CO2, and killed by decapitation. Glands were removed rapidly to maintain tissue health, and transferred to physiological saline (in mM: 125 NaCl, 4 KCl, 26 NaHCO3, 1.25 NaH2PO4, 2 CaCl2, 1 MgCl2, 10 glucose) bubbled with 95% O2/5% CO2 (Jackson et al., 1991, Action potential broadening and frequency-dependent facilitation of calcium signals in pituitary nerve terminals. Proc. Roy. Soc. Lond. 88:380-384). For oxytocin release experiments the pituitary was kept intact. For electrophysiological recordings, slices of posterior pituitary were cut at 70 μm with a vibratome and maintained in physiological saline. Oxytocin release. Whole pituitary glands with attached axon bundle were placed in a chamber perfused with oxygenated physiological saline. Perfusion was stopped at ˜15 min intervals during measurements, when the physiological saline was substituted with a solution of a similar composition, but with the addition of 20 mM HEPES and NaHCO3, and NaH2PO4 reduced to zero. The pH was adjusted to 7.3 with NaOH. Basal release was measured after a 5 min waiting period (immediately before the stimulus application). The axon bundle was stimulated via a large-diameter, monopolar extracellular glass electrode. Oxytocin release was evoked by a series of 5 trains of 0.2 msec, 0.2 mA current pulses with a frequency of 25 Hz and a duration of 10 seconds. Trains were applied at 1 min intervals. Evoked release was measured 5 minutes after the end of stimulation by gently mixing the bath with a micropipette and collecting 10-20 μL samples in the vicinity of the tissue. Three separate samples were collected for each measurement (including basal release control). Perfusion of the oxygenated physiological saline was restored immediately after sample collection and sildenafil was added to the bath solution for 30-60 min. Recordings of the sildenafil effect on basal and evoked release were then repeated as described above. To control for possible rundown of release, measurements of sildenafil effects were in some cases substituted by the second control measurements. Oxytocin was measured in collected fluid using the Correlate-EIA enzyme immunoassay kit (Assay Designs, Ann Arbor, Mich.). Oxytocin concentration was inversely proportional to the yellow color generated by the immunoassay and was scanned into the computer using an automated micro plate reader at 405 nm. Actual oxytocin concentration was determined with a standard curve measured for each sample plate.

[2] = tested on: BK channels in pituitary nerve terminals; assay: Patch clamp recordings of potassium current in posterior pituitary slices after photolysis of caged cGMP; format: cell-based, rats; details: slices bathed in 15 μM sildenafil, control recovered in about 3 minutes
Description: Posterior pituitary. Experiments were performed on posterior pituitary glands removed from rats of either sex, ranging in age from 1-3 months. Animals were rendered unconscious by inhalation of CO2, and killed by decapitation. Glands were removed rapidly to maintain tissue health, and transferred to physiological saline (in mM: 125 NaCl, 4 KCl, 26 NaHCO3, 1.25 NaH2PO4, 2 CaCl2, 1 MgCl2, 10 glucose) bubbled with 95% O2/5% CO2 (Jackson et al., 1991, Action potential broadening and frequency-dependent facilitation of calcium signals in pituitary nerve terminals. Proc. Roy. Soc. Lond. 88:380-384). For oxytocin release experiments the pituitary was kept intact. For electrophysiological recordings, slices of posterior pituitary were cut at 70 μm with a vibratome and maintained in physiological saline. Electrophysiology. Recordings of K^+ current were made with patch pipettes filled with (in mM) 130 KCl, 10 NaCl, 10 HEPES, 4 Mg-ATP, 0.3 GTP, 5 EGTA, pH 7.3. Individual nerve terminals were identified in an upright DIC microscope, Jackson, 1993. Passive current flow and morphology in the terminal arborizations of the posterior pituitary. J. Neurophysiol. 69, 692-702, and voltage or current clamped with an EPC-7 patch clamp amplifier. […] The component of potassium current corresponding to BK channels (seen at the end of a 200 msec voltage step from −80 to 50 mV) was determined for each pulse. […]

pituitary nerve terminal = details: after 5 or 10 seconds of high frequency stimulation; control ~30%; cited from earlier work
[3] = 7-NI 100 μM with sildenafil 10 μM

SMILES: O=[N+]([O-])c1cccc2cn[nH]c12 [7-NI, 7-nitorindazol]
- effect on sildenafil-induced increase in basal oxytocin release [1, 3]: blocked
- effect on sildenafil-induced increase in evoked oxytocin release [1, 3]: blocked

SMILES: CCCc1nn(C)c2c(=O)[nH]c(-c3cc(S(=O)(=O)N4CCN(C)CC4)ccc3OCC)nc12 [Sildenafil, 5-[2-ethoxy-5-(4-methyl-1-piperazinylsulphonyl)phenyl]-1-methyl-3-n-propyl-1,6-dihydro-7H-pyrazolo [4,3-d]pyrimidin-7-one]
- basal oxytocin release ([1]; sildenafil 10 μM, 30-60 min in bath): insignificant increase
- evoked oxytocin release ([1]; sildenafil 10 μM, electrical stimulation of axon bundle): large and significant increase
- recovery of the cGMP-induced increase in potassium current [2]: greatly slowing the recovery
- recovery of the cGMP-induced increase in potassium current ([2]; listed as sildenafil): failed to recover

SMILES: Nc1nc2c(ncn2[C@@H]2O[C@@H]3COP(=O)(O)O[C@H]3[C@H]2O)c(=O)[nH]1 [cGMP]
- success rate of stimulus pulses evoking action potentials (pituitary nerve terminal): ~60%

— patent US20070010525A1, “Method and compositions for modulating neuropeptide hormone secretion” (priority 2005, published 2007)
